Read-outs that look alike come from different tables or passages of the source.
Experiments:
DLD-1 BRCA2−/− cells = assay: Homologous recombination synthetic lethal inhibition of proliferation, DLD-1 BRCA2-/- (Cell Titre Glo 3D); assay type: cell-based; details: Homo sapiens
In short: (§1)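 DLD-1 BRCA2−/− and parental DLD-1 cells exposed to 10-point dose range (10 μM to 0.51 nM, 3-fold) in RPMI/10% FBS at 37 °C, with medium and compound replenished on day 6. Viability by Cell Titre Glo 3D luminescence at day 7 (DLD-1) or day 12 (BRCA2−/−); IC50 as concentration halving maximum signal.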

DLD-1 cells = assay: Inhibition of proliferation, DLD-1 BRCA2 wt control (Cell Titre Glo 3D); assay type: cell-based; details: Homo sapiens
In short: as §1

[1] = DLD-1, 288 h, DLD-1 BRCA2−/− cells, 12 days, read-out: POLQ PD Prolif Lumin BRCA2 −/− mean pIC50 (converted)
[2] = DLD-1, 168 h, DLD-1 BRCA2 wt cells, 7 days, read-out: POLQ PD Prolif Lumin DLD1 mean pIC50 (converted)
[3] = DLD-1, DLD-1 BRCA2 −/− cells, mean, read-out: POLQ PD Prolif Lumin BRCA2 −/− mean pIC50 (converted)
[4] = DLD-1, DLD1 BRCA2 wt cells, mean, read-out: POLQ PD Prolif Lumin DLD1 mean PIC50 (converted)
[5] = DLD-1, DLD-1 BRCA2 −/−, mean, read-out: POLQ PD Prolif Lumin BRCA2 −/− mean pIC50 (converted)
[6] = DLD-1, DLD1 BRCA2 wt, mean, read-out: POLQ PD Prolif Lumin DLD1 mean pIC50 (converted)
[7] = DLD-1, DLD-1 BRCA2-/- proliferation, column head only partly shown, read-out: POLQ PD Prolif Lumin (converted)
[8] = DLD-1, DLD-1 BRCA2 wt control proliferation, column head only partly shown, read-out: POLQ PD Prolif Lumin (converted)

Cc1cc(OC[C@H]2CNCCO2)ncc1-c1nc2c(OC3(C)CC3)ncnc2n1Cc1ccccc1 [Example G15, (R)-2-(((5-(9-benzyl-6-(1-methylcyclopropoxy)-9H-purin-8-yl)-4-methylpyridin-2-yl)oxy)methyl)morpholine]
IC50 (DLD-1 BRCA2−/− cells; [1]): 398 nM | IC50 (DLD-1 cells; [2]): > 10 µM

CN1CCN(CCOc2ccc(-c3nc4c(OC5(C)CC5)ncnc4n3Cc3ccccc3)c(Br)c2)CC1 [Example H6, 9-benzyl-8-(2-bromo-4-(2-(4-methylpiperazin-1-yl)ethoxy)phenyl)-6-(1-methylcyclopropoxy)-9H-purine]
IC50 (DLD-1 BRCA2−/− cells; [1]): 63.1 nM | IC50 (DLD-1 cells; [2]): 5.01 µM

CC(=O)N1CCC(COc2ccc(-c3nc4c(OC5(C)CC5)ncnc4n3Cc3ccccc3)c(Cl)c2)CC1 [Example D1, 1-(4-((4-(9-benzyl-6-(1-methylcyclopropoxy)-9H-purin-8-yl)-3-chlorophenoxy)methyl)piperidin-1-yl)ethan-1-one]
IC50 (DLD-1 BRCA2−/− cells; [1]): 79.4 nM | IC50 (DLD-1 cells; [2]): 6.31 µM

Cc1cnc(Cn2c(-c3ccc(CC(N)=O)cc3Cl)nc3c(OC4(C)CC4)ncnc32)s1 [Example T4, 2-(3-chloro-4-(6-(1-methylcyclopropoxy)-9-((5-methylthiazol-2-yl)methyl)-9H-purin-8-yl)phenyl)acetamide]
IC50 (DLD-1 BRCA2−/− cells; [3]): 1260 nM | IC50 (DLD-1 cells; [4]): > 10 µM

COc1ccc(Cl)cc1Cn1c(-c2ccc(OCCC(C)(C)C(=O)O)cc2Cl)nc2c(OC3(C)CC3)ncnc21 [Example U31, 4-(3-chloro-4-(9-(5-chloro-2-methoxybenzyl)-6-(1-methylcyclopropoxy)-9H-purin-8-yl)phenoxy)-2,2-dimethylbutanoic acid]
IC50 (DLD-1 BRCA2−/− cells; [5]): 50.1 nM | IC50 (DLD-1 cells; [6]): > 7.94 µM

CC1(Oc2ncnc3c2nc(-c2ccc(N4CCC(N)CC4)cc2Cl)n3Cc2cc(Cl)ccn2)CC1 [Example T230, 1-(3-chloro-4-(9-((4-chloropyridin-2-yl)methyl)-6-(1-methylcyclopropoxy)-9H-purin-8-yl)phenyl)piperidin-4-amine]
IC50 (DLD-1 BRCA2−/− cells; [7]): 398 nM | IC50 (DLD-1 cells; [8]): > 10 µM

CC1(Oc2ncnc3c2nc(-c2ccc(OCCN4CCNCC4)cc2Cl)n3Cc2nnco2)CC1 [Example T76, 2-((8-(2-chloro-4-(2-(piperazin-1-yl)ethoxy)phenyl)-6-(1-methylcyclopropoxy)-9H-purin-9-yl)methyl)-1,3,4-oxadiazole]
IC50 (DLD-1 BRCA2−/− cells; [3]): > 10000 nM | IC50 (DLD-1 cells; [4]): > 3.16 µM

CN1CCN(CCOc2ccc(-c3nc4c(OC5(C)CC5)ncnc4n3Cc3ccccc3)c(Cl)c2)CC1 [Example 4, 9-Benzyl-8-(2-chloro-4-(2-(4-methylpiperazin-1-yl)ethoxy)phenyl)-6-(1-methylcyclopropoxy)-9H-purine]
IC50 (DLD-1 BRCA2−/− cells; [1]): 63.1 nM | IC50 (DLD-1 cells; [2]): 3.98 µM

CC1(Oc2ncnc3c2nc(-c2cccc(OCCC(=O)O)c2Cl)n3Cc2cc(Cl)ccc2C#N)CC1 [Example U96, 3-(2-chloro-3-(9-(5-chloro-2-cyanobenzyl)-6-(1-methylcyclopropoxy)-9H-purin-8-yl)phenoxy)propanoic acid]
IC50 (DLD-1 BRCA2−/− cells; [5]): 10 nM | IC50 (DLD-1 cells; [6]): > 10 µM

CC(CCOc1ccc(-c2nc3c(OC4(C)CC4)ncnc3n2Cc2cc(Cl)cc(Cl)c2)c(Cl)c1)C(=O)O (racemic) [Example T275, 4-(3-chloro-4-(9-(3,5-dichlorobenzyl)-6-(1-methylcyclopropoxy)-9H-purin-8-yl)phenoxy)-2-methylbutanoic acid]
IC50 (DLD-1 BRCA2−/− cells; [7]): 126 nM | IC50 (DLD-1 cells; [8]): > 10 µM

C#CC1(Oc2ncnc3c2nc(-c2ccc(OCCN4CCNCC4)cc2Cl)n3Cc2ccccc2)CC1 [Example Q1, 9-benzyl-8-(2-chloro-4-(2-(piperazin-1-yl)ethoxy)phenyl)-6-(1-ethynylcyclopropoxy)-9H-purine]
IC50 (DLD-1 BRCA2−/− cells; [1]): 316 nM | IC50 (DLD-1 cells; [2]): > 10 µM

COc1ccc(Cl)cc1Cn1c(-c2ccc(OCC[C@H](C)C(=O)O)cc2Cl)nc2c(OC3(C)CC3)ncnc21 [Example 48, (S)-4-(3-chloro-4-(9-(5-chloro-2-methoxybenzyl)-6-(1-methylcyclopropoxy)-9H-purin-8-yl)phenoxy)-2-methylbutanoic acid]
IC50 (DLD-1 BRCA2−/− cells; DLD-1, 288 h, DLD-1 BRCA2−/−, 12 days, Cell Titre Glo 3D, read-out: POLQ PD Prolif Lumin BRCA2 −/− Mean pIC50 (converted)): 39.8 nM | IC50 (DLD-1 cells; DLD-1, 168 h, DLD-1 (BRCA2 wt control), 7 days, Cell Titre Glo 3D, read-out: POLQ PD Prolif Lumin DLD1 Mean pIC50 (converted)): > 10 µM

Cc1ccnc(Cn2c(-c3ccc(OCCN(C)C)cc3Cl)nc3c(OC4(C#N)CC4)ncnc32)c1 [Example T203, 1-((8-(2-chloro-4-(2-(dimethylamino)ethoxy)phenyl)-9-((4-methylpyridin-2-yl)methyl)-9H-purin-6-yl)oxy)cyclopropane-1-carbonitrile]
IC50 (DLD-1 BRCA2−/− cells; [7]): 398 nM | IC50 (DLD-1 cells; [8]): > 10 µM

CC1(Oc2ncnc3c2nc(-c2ccc(OCCC(=O)O)cc2Cl)n3Cc2cccc(C(F)(F)F)c2)CC1 [Example T151, 3-(3-chloro-4-(6-(1-methylcyclopropoxy)-9-(3-(trifluoromethyl)benzyl)-9H-purin-8-yl)phenoxy)propanoic acid]
IC50 (DLD-1 BRCA2−/− cells; DLD-1, first proliferation column (c5), DLD-1 BRCA2-/-, read-out: POLQ PD Prolif Lumin (converted)): 398 nM | IC50 (DLD-1 cells; DLD-1, second proliferation column (c6), DLD-1 BRCA2 wt control, read-out: POLQ PD Prolif Lumin (converted)): > 10 µM

COc1ccc(Cl)cc1Cn1c(-c2ccc(OCCCC(C)(C)C(=O)O)cc2Cl)nc2c(OC3(C)CC3)ncnc21 [Example U47, 5-(3-chloro-4-(9-(5-chloro-2-methoxybenzyl)-6-(1-methylcyclopropoxy)-9H-purin-8-yl)phenoxy)-2,2-dimethylpentanoic acid]
IC50 (DLD-1 BRCA2−/− cells; [5]): 31.6 nM | IC50 (DLD-1 cells; [6]): 6.31 µM

Cc1cc(OCCN2CCN(C)CC2)ccc1-c1nc2c(OC(C)C)ncnc2n1Cc1ccccc1 [Example 1, 9-Benzyl-6-isopropoxy-8-(2-methyl-4-(2-(4-methylpiperazin-1-yl)ethoxy)phenyl)-9H-purine]
IC50 (DLD-1 BRCA2−/− cells; [1]): 631 nM | IC50 (DLD-1 cells; [2]): 6.31 µM

CC1(Oc2ncnc3c2nc(-c2cc(Cl)c(OCCN4CCNCC4)cc2Cl)n3Cc2ccccc2)CC1 [Example J4, 9-benzyl-8-(2,5-dichloro-4-(2-(piperazin-1-yl)ethoxy)phenyl)-6-(1-methylcyclopropoxy)-9H-purine]
IC50 (DLD-1 BRCA2−/− cells; [1]): 50.1 nM | IC50 (DLD-1 cells; [2]): 3.98 µM

CC1(Oc2ncnc3c2nc(-c2ccc(N4CCNCC4)cc2Cl)n3Cc2ccccc2)CC1 [Example C7, 9-benzyl-8-(2-chloro-4-(piperazin-1-yl)phenyl)-6-(1-methylcyclopropoxy)-9H-purine]
IC50 (DLD-1 BRCA2−/− cells; [1]): 251 nM | IC50 (DLD-1 cells; [2]): 6.31 µM

CC(=O)N1CCN(CCOc2cccc(-c3nc4c(OC5(C)CC5)ncnc4n3Cc3ccccc3)c2Cl)CC1 [Example D8, 1-(4-(2-(3-(9-benzyl-6-(1-methylcyclopropoxy)-9H-purin-8-yl)-2-chlorophenoxy)ethyl)piperazin-1-yl)ethan-1-one]
IC50 (DLD-1 BRCA2−/− cells; [1]): 50.1 nM | IC50 (DLD-1 cells; [2]): 6.31 µM

CC1(Oc2cccc3c2nc(-c2ccc(OCCC(=O)O)cc2Cl)n3Cc2cccc(Cl)c2)CCC1 [Example T406, 3-(3-chloro-4-(1-(3-chlorobenzyl)-4-(1-methylcyclobutoxy)-1H-benzo[d]imidazol-2-yl)phenoxy)propanoic acid]
IC50 (DLD-1 BRCA2−/− cells; DLD-1, proliferation, luminescence, taken as DLD-1 BRCA2-/-, read-out: POLQ PD Prolif Lumin (converted)): 2000 nM | IC50 (DLD-1 cells; DLD-1, proliferation, luminescence, second Prolif column (c6), taken as DLD-1 BRCA2 wt control, read-out: POLQ PD Prolif Lumin (converted)): > 10 µM

CC1(Oc2ncnc3c2nc(-c2ccc(OCCN4CCNCC4)cc2Cl)n3Cc2ncc(Cl)s2)CC1 [Example L6, 5-chloro-2-((8-(2-chloro-4-(2-(piperazin-1-yl)ethoxy)phenyl)-6-(1-methylcyclopropoxy)-9H-purin-9-yl)methyl)thiazole]
IC50 (DLD-1 BRCA2−/− cells; [1]): 398 nM | IC50 (DLD-1 cells; [2]): > 10 µM

Cc1ccnc(Cn2c(-c3ccc(O[C@H]4CCNC4)cc3Cl)nc3c(OC4(C)CC4)ncnc32)c1 [Example T208, (S)-8-(2-chloro-4-(pyrrolidin-3-yloxy)phenyl)-6-(1-methylcyclopropoxy)-9-((4-methylpyridin-2-yl)methyl)-9H-purine]
IC50 (DLD-1 BRCA2−/− cells; [7]): 501 nM | IC50 (DLD-1 cells; [8]): > 10 µM

Cc1ccnc(Cn2c(-c3ccc(CC(=O)O)cc3Cl)nc3c(OC4(C)CC4)ncnc32)c1 [Example T49, 2-(3-chloro-4-(6-(1-methylcyclopropoxy)-9-((4-methylpyridin-2-yl)methyl)-9H-purin-8-yl)phenyl)acetic acid]
IC50 (DLD-1 BRCA2−/− cells; [3]): > 10000 nM | IC50 (DLD-1 cells; [4]): > 10 µM

Cc1ccnc(Cn2c(-c3ccc(S(C)(=O)=O)cc3Cl)nc3c(OC4(C)CC4)ncnc32)c1 [Example T16, 8-(2-chloro-4-(methylsulfonyl)phenyl)-6-(1-methylcyclopropoxy)-9-((4-methylpyridin-2-yl)methyl)-9H-purine]
IC50 (DLD-1 BRCA2−/− cells; [3]): 794 nM | IC50 (DLD-1 cells; [4]): > 10 µM

CN(C)CCCOc1ccc(-c2nc3c(OC4(C)CC4)ncnc3n2Cc2cc(C(F)(F)F)ccn2)c(Cl)c1 [Example T329, 3-(3-chloro-4-(6-(1-methylcyclopropoxy)-9-((4-(trifluoromethyl)pyridin-2-yl)methyl)-9H-purin-8-yl)phenoxy)-N,N-dimethylpropan-1-amine]
IC50 (DLD-1 BRCA2−/− cells; DLD-1, first proliferation column (c5), taken as DLD-1 BRCA2-/-, read-out: POLQ PD Prolif Lumin (converted)): 126 nM | IC50 (DLD-1 cells; DLD-1, second proliferation column (c6), taken as DLD-1 BRCA2 wt, read-out: POLQ PD Prolif Lumin (converted)): 10 µM
